Results: patent publication US9434725B2, “5-azaindazole compounds and methods of use” (priority 2012, dated 2016)
Like-named read-outs stand apart in the source and are kept apart here.

How the values were obtained:
Format in all cases: biochemical
PIM1 = PIM1 (Homo sapiens (Human), UniProt P11309); experiment: biochemical
Description: (§1) A fluorescent-labeled Pim-specific peptide substrate, was custom synthesized by American Peptide Company (Sunnyvale, Calif.). Reaction Buffer contained 10 mM HEPES, pH 7.2, 10 mM MgCl2, 0.01% Tween 20, 2 mM DTT. Termination Buffer contained 190 mM HEPES, pH 7.2, 0.015% Brij-35, 0.2% Coating Reagent 3 (Caliper Life Sciences, Hopkinton, Mass.), 20 mM EDTA. Separation Buffer contained 100 mM HEPES, pH 7.2, 0.015% Brij-35, 0.1% Coating Reagent 3, 1:200 Coating Reagent 8 (Caliper Life Sciences, Hopkinton, Mass.), 10 mM EDTA and 5% DMSO.
(§2) PIM reactions were carried out in a final volume of 10 μL per well in a 384-well plate. […] After 90 minutes of incubation at room temperature, the phosphorylation reaction was stopped by the addition of 10 μL Termination Buffer. The product and substrate in each independent reaction were separated on a 12-sipper microfluidic chip (Caliper Life Sciences, Hopkinton, Mass.) run on a Caliper LC3000® (Caliper Life Sciences, Hopkinton, Mass.). The separation of product and substrate was optimized by choosing voltages and pressure using Caliper's Optimizer software (Hopkinton, Mass.). […] Substrate conversion was calculated from the electropherogram using HTS Well Analyzer software (Caliper Life Sciences, Hopkinton, Mass.). Ki values for the test compound were calculated.

PIM3 = PIM3 (Homo sapiens (Human), UniProt Q86V86); experiment: Pim kinase binding activity, Caliper LC3000 microfluidic peptide phosphorylation assay, PIM3; conditions: 10 μM ATP, 90 min, room temperature; read-out: PIM3 LC3K (KI)
Description: as §1, §2

PIM2 = PIM2 (Homo sapiens (Human), UniProt Q9P1W9); experiment: Pim kinase binding activity, Caliper LC3000 microfluidic peptide phosphorylation assay, PIM2; conditions: 10 μM ATP, 90 min, room temperature; read-out: PIM2 LC3K (KI)
Sequence of PIM2 (Q9P1W9 whole entry): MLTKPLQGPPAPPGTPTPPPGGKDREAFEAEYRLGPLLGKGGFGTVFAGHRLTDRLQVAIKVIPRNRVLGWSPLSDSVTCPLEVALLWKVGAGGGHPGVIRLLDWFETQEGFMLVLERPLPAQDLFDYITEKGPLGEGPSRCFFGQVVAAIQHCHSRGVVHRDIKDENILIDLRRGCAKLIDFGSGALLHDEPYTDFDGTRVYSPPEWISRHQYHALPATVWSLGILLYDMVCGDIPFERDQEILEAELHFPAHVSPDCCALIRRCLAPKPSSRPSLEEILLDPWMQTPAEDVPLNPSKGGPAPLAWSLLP
Description: as §1, §2

[1] = 10 μM ATP, 90 min, room temperature, read-out: PIM1 LC3K (KI)

Sequence of PIM1 (P11309 whole entry): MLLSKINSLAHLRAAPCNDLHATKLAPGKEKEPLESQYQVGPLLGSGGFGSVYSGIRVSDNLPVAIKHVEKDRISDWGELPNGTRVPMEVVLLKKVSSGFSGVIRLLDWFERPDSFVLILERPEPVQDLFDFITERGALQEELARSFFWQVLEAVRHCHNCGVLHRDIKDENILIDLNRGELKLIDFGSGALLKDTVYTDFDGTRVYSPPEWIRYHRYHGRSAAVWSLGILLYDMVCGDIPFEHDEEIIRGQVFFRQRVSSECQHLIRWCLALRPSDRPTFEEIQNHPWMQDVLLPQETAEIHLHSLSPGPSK

Row | Compound | Ki (PIM1; [1]) | Ki (PIM3) | Ki (PIM2) | Ki (PIM1)
1 | C[C@@]1(O)CNCCN(c2cccc(-n3ncc4cnc(-c5cnn(CC(F)(F)F)c5)cc43)n2)C1 [Compound 249, (R)-6-Methyl-1-(6-(6-(1-(2,2,2-trifluoroethyl)-1H-pyrazol-4-yl)-1H-pyrazolo[4,3-c]-pyridin-1-yl)pyridin-2-yl)-1,4-diazepan-6-ol] | 2.16 nM | 3.09 nM | 16.8 nM | –
2 | c1cc(N2CCNCC2)nc(-n2ncc3cnc(-c4cncc(C5CC5)c4)cc32)c1 [Compound 111, 6-(5-cyclopropylpyridin-3-yl)-1-(6-(piperazin-1-yl)pyridin-2-yl)-1H-pyrazolo[4,3-c]pyridine] | 0.165 nM | 0.181 nM | 9.11 nM | –
3 | Cn1cc(-c2cc3c(cn2)cnn3-c2cccc(N3CC(O)C3)n2)cn1 [Compound 253, 1-(6-(6-(1-Methyl-1H-pyrazol-4-yl)-1H-pyrazolo[4,3-c]pyridin-1-yl)pyridin-2-yl)azetidin-3-ol] | 2.52 nM | 1.78 nM | 45.1 nM | –
4 | COc1ccc(-n2ncc3cnc(-c4cnn(CC(F)(F)F)c4)cc32)nc1N1CCNC[C@H](O)C1 [Compound 237, (S)-1-(3-Methoxy-6-(6-(1-(2,2,2-trifluoroethyl)-1H-pyrazol-4-yl)-1H-pyrazolo-[4,3-c]pyridin-1-yl)pyridin-2-yl)-1,4-diazepan-6-ol] | 0.31 nM | 0.587 nM | 10.1 nM | –
5 | CCn1cc(-c2cc3c(cn2)cnn3-c2cccc(N3CC[C@H](N)C3)n2)cn1 [Compound 135, (S)-1-(6-(6-(1-ethyl-1H-pyrazol-4-yl)-1H-pyrazolo[4,3-c]pyridin-1-yl)pyridin-2-yl)pyrrolidin-3-amine] | 2.12 nM | 0.84 nM | 11.1 nM | –
6 | Cc1cncc(-c2cc3c(cn2)cnn3-c2ccc(C)c(N3CCC[C@H](N)C3=O)n2)n1 [Compound 245, (3S)-3-amino-1-[3-methyl-6-[6-(6-methylpyrazin-2-yl)pyrazolo[4,3-c]pyridin-1-yl]-2-pyridyl]piperidin-2-one] | 5.61 nM | 2.13 nM | 52.5 nM | –
7 | Cn1cc(-c2cc3c(cn2)cnn3-c2cccc(N3CCNC[C@@H](O)C3)n2)cn1 [Compound 229, (R)-1-(6-(6-(1-Methyl-1H-pyrazol-4-yl)-1H-pyrazolo[4,3-c]pyridin-1-yl)pyridin-2-yl)-1,4-diazepan-6-ol] | 0.316 nM | 0.131 nM | 9.39 nM | –
8 | c1ccc(COc2cncc(-c3cc4c(cn3)cnn4-c3cccc(N4CCNCC4)n3)n2)cc1 [Compound 276, 6-(6-(benzyloxy)pyrazin-2-yl)-1-(6-(piperazin-1-yl)pyridin-2-yl)-1H-pyrazolo[4,3-c]pyridine] | 0.494 nM | 0.337 nM | 34.8 nM | –
9 | Cn1cc(-c2cc3c(cn2)cnn3-c2cccc(N3CC4(CCCCN4)C3)n2)cn1 [Compound 266, 1-(6-(2,5-Diazaspiro[3.5]nonan-2-yl)pyridin-2-yl)-6-(1-methyl-1H-pyrazol-4-yl)-1H-pyrazolo[4,3-c]pyridine] | 1.1 nM | 1.21 nM | 29.3 nM | –
10 | Cc1cncc(-c2cc3c(cn2)cnn3-c2cccc(OC3CCCC(N)C3)n2)n1 (stereo not shown) [Compound 310, 3-(6-(6-(6-methylpyrazin-2-yl)-1H-pyrazolo[4,3-c]pyridin-1-yl)pyridin-2-yloxy)cyclohexanamine] | 1.64 nM | 1.63 nM | – | –
11 | Cc1cncc(-c2cc3c(cn2)cnn3-c2cccc(C3CNCCC3(F)F)n2)n1 (stereo not shown) [Compound 259, 1-[6-(4,4-difluoro-3-piperidyl)-2-pyridyl]-6-(6-methylpyrazin-2-yl)pyrazolo[4,3-c]pyridine] | 0.053 nM | – | 0.242 nM | –
12 | C[C@H]1CN(c2cccc(-n3ncc4cnc(-c5cncc(C6COC6)c5)cc43)n2)CCN1 [Compound 113, (S)-1-(6-(3-methylpiperazin-1-yl)pyridin-2-yl)-6-(5-(oxetan-3-yl)pyridin-3-yl)-1H-pyrazolo[4,3-c]pyridine] | 0.107 nM | 0.186 nM | 10.1 nM | –
13 | Cn1cc(-c2cc3c(cn2)cnn3-c2cccc(N3CC4(CNC4)C3)n2)cn1 [Compound 268, 1-(6-(2,6-Diazaspiro[3.3]heptan-2-yl)pyridin-2-yl)-6-(1-methyl-1H-pyrazol-4-yl)-1H-pyrazolo[4,3-c]pyridine] | 11.5 nM | – | 149 nM | –
14 | Cn1cc(-c2cc3c(cn2)cnn3-c2cn(C)c(=O)c(N3CCC[C@@H](N)C3)n2)cn1 [Compound 243, (R)-3-(3-aminopiperidin-1-yl)-1-methyl-5-(6-(1-methyl-1H-pyrazol-4-yl)-1H-pyrazolo[4,3-c]pyridin-1-yl)pyrazin-2(1H)-one] | 57.1 nM | 8.64 nM | 528 nM | –
15 | Cc1cnc(O)c(-c2cc3c(cn2)cnn3-c2cncc(N3CCCNCC3)n2)c1 [Compound 164, 3-(1-(6-(1,4-diazepan-1-yl)pyrazin-2-yl)-1H-pyrazolo[4,3-c]pyridin-6-yl)-5-methylpyridin-2-ol] | 50.2 nM | 14.8 nM | 527 nM | –
16 | CO[C@@]1(C)CNCCN(c2cccc(-n3ncc4cnc(-c5cnn(CC(F)(F)F)c5)cc43)n2)C1 [Compound 261, (S)-1-(6-(6-Methoxy-6-methyl-1,4-diazepan-1-yl)pyridin-2-yl)-6-(1-(2,2,2-trifluoroethyl)-1H-pyrazol-4-yl)-1H-pyrazolo[4,3-c]pyridine] | 0.763 nM | 2.74 nM | 16.5 nM | –
17 | CCn1cc(-c2cc3c(cn2)cnn3-c2cccc(N3CCNC(C)(C)C3)n2)cn1 [Compound 131, 1-(6-(3,3-dimethylpiperazin-1-yl)pyridin-2-yl)-6-(1-ethyl-1H-pyrazol-4-yl)-1H-pyrazolo[4,3-c]pyridine] | 0.58 nM | 0.385 nM | 15.9 nM | –
18 | COc1ccc(-n2ncc3cnc(-c4cnn(CC(F)(F)F)c4)cc32)nc1N1CCNC[C@@H](O)C1 [Compound 234, (R)-1-(3-Methoxy-6-(6-(1-(2,2,2-trifluoroethyl)-1H-pyrazol-4-yl)-1H-pyrazolo-[4,3-c]pyridin-1-yl)pyridin-2-yl)-1,4-diazepan-6-ol] | 0.107 nM | 0.236 nM | 2.25 nM | –
19 | CCn1cc(-c2cc3c(cn2)cnn3-c2cccc(NC3CCCCNC3)n2)cn1 (stereo not shown) [Compound 143, N-(6-(6-(1-ethyl-1H-pyrazol-4-yl)-1H-pyrazolo[4,3-c]pyridin-1-yl)pyridin-2-yl)azepan-3-amine] | 2.46 nM | 1.62 nM | 31.1 nM | –
20 | Cn1cc(-c2cc3c(cn2)cnn3-c2cccc(N3CCNCC3)n2)cn1 [Compound 102, 6-(1-methyl-1H-pyrazol-4-yl)-1-(6-(piperazin-1-yl)pyridin-2-yl)-1H-pyrazolo[4,3-c]pyridine] | 0.623 nM | – | 12.1 nM | –
21 | CCn1cc(-c2cc3c(cn2)cnn3-c2cccc(N3CC[C@@H](O)C3)n2)cn1 [Compound 128, (R)-1-(6-(6-(1-ethyl-1H-pyrazol-4-yl)-1H-pyrazolo[4,3-c]pyridin-1-yl)pyridin-2-yl)pyrrolidin-3-ol] | 7.22 nM | 4.39 nM | – | –
22 | Cc1cncc(-c2cc3c(cn2)cnn3-c2cccc(C(=O)N3CCC[C@@H](N)C3)n2)n1 [Compound 303, (R)-(3-aminopiperidin-1-yl)(6-(6-(6-methylpyrazin-2-yl)-1H-pyrazolo[4,3-c]pyridin-1-yl)pyridin-2-yl)methanone] | – | 15.6 nM | 193 nM | –
23 | Cc1cncc(-c2cc3c(cn2)cnn3-c2ccc(=O)n([C@@H]3CCCNC3)n2)n1 [Compound 290, (R)-6-(6-(6-methylpyrazin-2-yl)-1H-pyrazolo[4,3-c]pyridin-1-yl)-2-(piperidin-3-yl)pyridazin-3(2H)-one] | – | – | 43.2 nM | 16.3 nM
24 | CCn1cc(-c2cc3c(cn2)cnn3-c2cccc(N3CC[C@H](O)C3)n2)cn1 [Compound 127, (S)-1-(6-(6-(1-ethyl-1H-pyrazol-4-yl)-1H-pyrazolo[4,3-c]pyridin-1-yl)pyridin-2-yl)pyrrolidin-3-ol] | 3.04 nM | 1.31 nM | – | –
25 | CC(C)c1cncc(-c2cc3c(cn2)cnn3-c2cccc(N3CCC[C@@H](N)C3)n2)c1 [Compound 107, (R)-1-(6-(6-(5-isopropylpyridin-3-yl)-1H-pyrazolo[4,3-c]pyridin-1-yl)pyridin-2-yl)piperidin-3-amine] | – | 0.203 nM | 9.58 nM | –
26 | Cc1cncc(-c2cc3c(cn2)cnn3-c2cccc(N3CC[C@H](N)C3)n2)n1 [Compound 167, (3S)-1-[6-[6-(6-methylpyrazin-2-yl)pyrazolo[4,3-c]pyridin-1-yl]-2-pyridyl]pyrrolidin-3-amine] | – | 0.34 nM | 2.27 nM | –
27 | Cc1cncc(-c2cc3c(cn2)cnn3-c2ccc(C(F)(F)F)c(N3CCC[C@H](N)C3)n2)n1 [Compound 220, (S)-1-(6-(6-(6-methylpyrazin-2-yl)-1H-pyrazolo[4,3-c]pyridin-1-yl)-3-(trifluoromethyl)pyridin-2-yl)piperidin-3-amine] | – | 0.009 nM | 0.115 nM | –
